Experimental data taken from patent publication US20080113041A1, “CALCIUM SUPPLEMENTATION TO REDUCE PROSTATE CANCER RISK” (Trustees of Dartmouth College, priority 2001, published 2008).
Read-outs that look alike come from different tables or passages of the source.

What was measured:
[1] = system: prostate cancer; settings: for men diagnosed with prostate cancer: 345 men randomized to calcium; for adjusted odds ratio for prostate cancer: calcium vs placebo, 1200 mg elemental calcium (as carbonate); for toxicity: four years of treatment, 3000 mg calcium carbonate
Experimental: To investigate this issue in a randomized study, we investigated the association between prostate cancer risk and treatment assignment in a large, double blind chemoprevention trial of calcium carbonate supplementation for the prevention of large bowel adenomas. Treatment was for four years in two randomized groups: placebo or 1200 mg elemental calcium (as carbonate).
The Calcium Polyp Prevention Study from which the data for this study were obtained involved six clinical centers: the Cleveland Clinic Foundation, Dartmouth-Hitchcock Medical Center, the University of Southern California/Southern California Permanente Medical Group, the University of Iowa, University of Minnesota, and the University of North Carolina Dartmouth was the coordinating center. Human subjects committees at each center approved the study protocol; an independent safety and data monitoring committee reviewed the study semi-annually.
Eligible patients were less than eighty years old, in good health, and without a history of familial polyposis, invasive large bowel cancer, malabsorption syndromes, or any condition which might be worsened by supplemental calcium. We aimed to randomize 860 subjects to have 80% power to detect a 25% reduction in […].
We reviewed data from 2,918 apparently eligible patients. […] We assigned these subjects to calcium or placebo using computer-generated random numbers, blocking by study center. […] Study tablets contained 3000 mg of calcium carbonate (1200 mg of elemental calcium); or, an identical-appearing cellulose/sucrose placebo. The trial was double-blind; neither subjects nor study staff were told the subjects' treatment assignments.
At enrollment and at the time of each of two follow-up colonoscopies, we obtained venous blood specimens in mineral-free tubes. Serum was initially stored at −20° C. or lower, pending shipment to Dartmouth for storage at −70° C. until analysis. At enrollment and the end of the study, we also assessed subjects' diet with a validated food frequency questionnaire (Block et al., Am. J. Epidemiol., 124:453-69, 1986). Every six months, we sent patients questionnaires regarding adherence to study agents; use of medications, over-the-counter drugs and nutritional supplements; and the occurrence of symptoms, illnesses, and hospitalizations. Recruitment into the study began in November 1988 and ended in April 1992. Follow-up ended in December 1996.
To summarize the association between prostate cancer and treatment assignment, we used Kaplan-Meier survival curves as well as odds ratios (OR's) and 95% CI's, computed using logistic regression with adjustment for age, clinical center, and baseline dietary calcium. OR's were calculated for the period from randomization to end of treatment and, to accommodate possible delays in cancer detection and/or latent treatment effects, for the period from randomization to end of treatment plus 12 months (i.e., five years).

[2] = system: colorectal adenomas; settings: cited from earlier work
[3] = system: prostate cancer; settings: adjuvant arm after prostatic and pelvic radiation therapy; T3, N0, or any T, N1, M0 disease; 71% on observation arm, p=0.52; cited from earlier work
[4] = 913 subjects with at least one study examination, calcium carbonate 3 gm daily vs placebo

Compound	men diagnosed with prostate cancer ([1]; after five years of follow-up) [men]	men diagnosed with prostate cancer ([1]; after four years of follow-up) [men]	risk of prostate cancer ([1]; assignment to calcium supplementation vs placebo)	incidence of prostate cancer, Kaplan-Meier curves versus placebo ([1]; by year three of follow-up)	adjusted odds ratio for prostate cancer ([1]; five-year follow-up (end of treatment plus 12 months))	toxicity [1]	toxicity ([1]; listed as calcium carbonate)	adjusted odds ratio for prostate cancer ([1]; four-year treatment period, adjusted for age, clinical center, baseline dietary calcium)	adjusted ratio of the average numbers of adenomas [2, 4]	adjusted risk ratio of any adenoma recurrence [2, 4]	toxicity associated with supplementation ([2]; calcium carbonate 3 gm daily)	actuarial overall 5-year survival rate [3] [%]
O=C([O-])[O-].[Ca+2] [calcium, calcium carbonate]	11	8	statistically significant reduction	lower incidence	0.43	without toxicity	minimal	0.54	0.76	0.85	No toxicity	
CC(C)C[C@H](NC(=O)[C@@H](COC(C)(C)C)NC(=O)[C@H](Cc1ccc(O)cc1)NC(=O)[C@H](CO)NC(=O)[C@H](Cc1c[nH]c2ccccc12)NC(=O)[C@H](Cc1cnc[nH]1)NC(=O)[C@@H]1CCC(=O)N1)C(=O)N[C@@H](CCCNC(=N)N)C(=O)N1CCC[C@H]1C(=O)NNC(N)=O [goserelin]												75
